One experiment addresses T1, CDK9/CycT1 (Homo sapiens, UniProt P50750).
T1 construct: Recombinant full-length His-tagged human CDK9 and CycT1; His; purchased Invitrogen PV4131; host or cells: insect cells
Kind of experiment: CDK9/CycT1 high ATP kinase assay (TR-FRET, Method 1b). Type of experiment: biochemical. The settings on record: for IC50: Method 1b, 2 mM ATP; for Selectivity high ATP CDK9 over high ATP CDK2: IC50 (high ATP CDK2)/IC50 (high ATP CDK9): Methods 1b and 2b, minimal values where CDK9 IC50 is at the assay limit. As for the experimental part: 1b. CDK9/CycT1 High ATP Kinase Assay
CDK9/CycT1-inhibitory activity of compounds of the present invention at a high ATP concentration after preincubation of enzyme and test compounds was quantified employing the CDK9/CycT1 TR-FRET assay as described in the following paragraphs.
Recombinant full-length His-tagged human CDK9 and CycT1, expressed in insect cells and purified by Ni-NTA affinity chromatography, were purchase from Invitrogen (Cat. No PV4131). As substrate for the kinase reaction biotinylated peptide biotin-Ttds-YISPLKSPYKISEG (C-terminus in amid form) was used which can be purchased e.g. from the company JERINI peptide technologies (Berlin, Germany). For the assay 50 nl of a 100 fold concentrated solution of the test compound in DMSO was pipetted into a black low volume 384 well microtiter plate (Greiner Bio-One, Frickenhausen, Germany), 2 μl of a solution of CDK9/CycT1 in aqueous assay buffer [50 mM Tris/HCl pH 8.0, 10 mM MgCl2, 1.0 mM dithiothreitol, 0.1 mM sodium ortho-vanadate, 0.01% (v/v) Nonidet-P40 (Sigma)] were added and the mixture was incubated for 15 min at 22° C. to allow pre-binding of the test compounds to the enzyme before the start of the kinase reaction. […] The concentration of CDK9/CycT1 was adjusted depending of the activity of the enzyme lot and was chosen appropriate to have the assay in the linear range, typical concentrations were in the range of 0.5 μg/mL. The reaction was stopped by the addition of 5 μl of a solution of TR-FRET detection reagents (0.2 μM streptavidine-XL665 [Cisbio Bioassays, Codolet, France] and 1 nM anti-RB(pSer807/pSer811)-antibody from BD Pharmingen [#558389] and 1.2 nM LANCE EU-W1024 labeled anti-mouse IgG antibody [Perkin-Elmer, product no. AD0077]) in an aqueous EDTA-solution (100 mM EDTA, 0.2% (w/v) bovine serum albumin in 100 mM HEPES pH 7.5).
The resulting mixture was incubated 1 h at 22° C. to allow the formation of complex between the phosphorylated biotinylated peptide and the detection reagents. Subsequently the amount of phosphorylated substrate was evaluated by measurement of the resonance energy transfer from the Eu-chelate to the streptavidine-XL. Therefore, the fluorescence emissions at 620 nm and 665 nm after excitation at 350 nm was measured in a HTRF reader, e.g. a Rubystar (BMG Labtechnologies, Offenburg, Germany) or a Viewlux (Perkin-Elmer). The ratio of the emissions at 665 nm and at […] was taken as the measure for the amount of phosphorylated substrate. The data were normalised (enzyme reaction without inhibitor=0% inhibition, all other assay components but no enzyme=100% inhibition).
(Time-resolved FRET reads energy transfer from a long-lived donor to a nearby acceptor.)

A further experiment relates to NCI-H460 cells. Kind of experiment: Proliferation assay NCI-H460. Type of experiment: cell-based, human. To be noted: Homo sapiens, NCI-H460, 96 h, 4 days, crystal violet; read-out: Inhibition of NCI-H460 cell proliferation IC50. As for the experimental part:
(§1) Cultivated tumour cells (HeLa, human cervical tumour cells, ATCC CCL-2; NCI-H460, human non-small cell lung carcinoma cells, ATCC HTB-177; A2780, human ovarian carcinoma cells, ECACC #93112519; DU 145, hormone-independent human prostate carcinoma cells, ATCC HTB-81; HeLa-MaTu-ADR, multidrug-resistant human cervical carcinoma cells, EPO-GmbH Berlin; Caco-2, human colorectal carcinoma cells, ATCC HTB-37; B16F10, mouse melanoma cells, ATCC CRL-6475) were plated at a density of 5,000 cells/well (DU145, HeLa-MaTu-ADR), 3,000 cells/well (NCI-H460, HeLa), 2,500 cells/well (A2780), 1,500 cells/well (Caco-2), or 1,000 cells/well (B16F10) in a 96-well multititer plate in 200 μL of their respective growth medium supplemented 10% fetal calf serum. After 24 hours, the cells of one plate (zero-point plate) were stained with crystal violet (see below), while the medium of the other plates was replaced by fresh culture medium (200 μl), to which the test substances were added in various concentrations (0 μM, as well as in the range of 0.001-10 μM). The cells were incubated for 4 days in the presence of test substances. Cell proliferation was determined by staining the cells with crystal violet: the cells were fixed by adding 20 μl/measuring point of an 11% glutaric aldehyde solution for 15 minutes at room temperature. After three washing cycles of the fixed cells with water, the plates were dried at room temperature. The cells were stained by adding 100 μl/measuring point of a 0.1% crystal violet solution (pH 3.0). After three washing cycles of the stained cells with water, the plates were dried at room temperature. The dye was dissolved by adding 100 μl/measuring point of a 10% acetic acid solution. The extinction was determined by photometry at a wavelength of 595 nm. The change of cell number, in percent, was calculated by normalization of the measured values to the extinction values of the zero-point plate (=0%) and the extinction of the untreated (0 μm) cells (=100%). The IC50 values (inhibitory concentration at 50% of maximal effect) were determined by means of a 4 parameter fit. Non-adherent MOLM-13 human acute myeloid leukemia cells (DSMZ ACC 554) were seeded at a density of 5,000 cells/well in a 96-well multititer plate in 100 μL of growth medium supplemented 10% fetal calf serum. After 24 hours, cell viability of one plate (zero-point plate) was determined with the Cell Titre-Glo Luminescent Cell Viability Assay (Promega), while 50 μL of test compound containing medium was added to the wells of the other plates (final concentrations in the range of 0.001-1 μM and DMSO controls). Cell viability was assessed after 72-hour exposure with the Cell Titre-Glo Luminescent Cell Viability Assay (Promega). IC50 values (inhibitory concentration at 50% of maximal effect) were determined by means of a 4 parameter fit on measurement data which were normalized to vehicle (DMSO) treated cells (=100%) and measurement readings taken immediately before compound exposure (=0%).

The subject of another experiment is DU145 cells. The experiment in a line: Proliferation assay DU145. Type of experiment: cell-based, human. To be noted: Homo sapiens, DU-145, 96 h, 4 days, crystal violet; read-out: Inhibition of DU145 cell proliferation IC50. How it is done: as §1
The test system of another experiment is HeLa-MaTu-ADR cells. Kind of experiment: Proliferation assay HeLa-MaTu-ADR. Type of experiment: cell-based, human. The settings on record: Homo sapiens, 96 h, 4 days, crystal violet; read-out: Inhibition of HeLa-MaTu-ADR cell proliferation IC50. As for the experimental part:
as §1

Some results are limits rather than exact numbers.

T1 sequence (P50750 whole entry): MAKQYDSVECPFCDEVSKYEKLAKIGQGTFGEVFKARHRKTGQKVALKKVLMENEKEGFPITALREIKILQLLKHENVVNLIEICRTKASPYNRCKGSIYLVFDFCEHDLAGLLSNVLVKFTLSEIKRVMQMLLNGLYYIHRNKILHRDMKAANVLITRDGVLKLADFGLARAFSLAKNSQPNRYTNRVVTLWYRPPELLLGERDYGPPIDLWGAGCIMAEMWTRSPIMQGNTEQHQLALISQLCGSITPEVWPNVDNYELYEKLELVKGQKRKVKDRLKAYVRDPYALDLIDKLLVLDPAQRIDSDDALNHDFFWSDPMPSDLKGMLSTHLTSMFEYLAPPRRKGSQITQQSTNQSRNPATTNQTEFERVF
T1 sequence (O60563 whole entry partner): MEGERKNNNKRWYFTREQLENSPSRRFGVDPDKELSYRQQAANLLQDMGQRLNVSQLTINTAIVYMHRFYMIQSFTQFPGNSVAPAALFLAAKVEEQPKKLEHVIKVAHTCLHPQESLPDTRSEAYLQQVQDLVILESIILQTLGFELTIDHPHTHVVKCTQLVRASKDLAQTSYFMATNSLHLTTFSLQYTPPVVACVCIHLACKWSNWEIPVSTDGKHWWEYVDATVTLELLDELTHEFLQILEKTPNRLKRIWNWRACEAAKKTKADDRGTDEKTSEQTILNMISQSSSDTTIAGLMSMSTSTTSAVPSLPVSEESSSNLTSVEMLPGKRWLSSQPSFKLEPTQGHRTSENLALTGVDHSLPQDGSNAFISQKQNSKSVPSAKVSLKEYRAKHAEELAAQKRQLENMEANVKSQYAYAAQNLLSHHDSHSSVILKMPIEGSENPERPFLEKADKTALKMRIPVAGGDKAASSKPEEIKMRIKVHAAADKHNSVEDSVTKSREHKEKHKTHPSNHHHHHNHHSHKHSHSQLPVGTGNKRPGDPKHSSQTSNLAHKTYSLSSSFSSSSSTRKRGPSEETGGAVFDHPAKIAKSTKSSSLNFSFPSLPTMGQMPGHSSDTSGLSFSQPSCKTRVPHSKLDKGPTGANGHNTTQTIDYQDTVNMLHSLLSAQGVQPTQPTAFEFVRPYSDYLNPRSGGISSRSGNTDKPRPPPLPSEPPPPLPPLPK

In the case of `CS(=N)(=O)Cc1cc2cc(c1)OCCCCOc1cc(F)ccc1-c1nc(ncc1F)N2` (racemic) [Example 1, (rac)-16,20-Difluoro-9-[(S-methylsulfonimidoyl)methyl]-2,3,4,5-tetrahydro-12H-13,17-(azeno)-11,7-(metheno)-1,6,12,14-benzodioxadiazacyclononadecine], the IC50 against CDK9/CycT1 stood at 1.7 nM; with NCI-H460 cells, 20 nM; in the experiment with DU145 cells, 10 nM. On CDK9/CycT1, the “Selectivity high ATP CDK9 over high ATP CDK2: IC50 (high ATP CDK2)/IC50 (high ATP CDK9)” value (“Selectivity high ATP CDK9” for short) is on record as 125.3.

Regarding `C[S+]([O-])Cc1cc2nc(c1)OCCCOc1cc(F)ccc1-c1cc(ncc1F)N2` (racemic) [Example 4, (rac)-15,19-Difluoro-8-[(methylsulfinyl)methyl]-3,4-dihydro-2H,11H-10,6-(azeno)-12,16-(metheno)-1,5,11,13-benzodioxadiazacyclooctadecine], the IC50 is 1.6 nM on CDK9/CycT1, 12 nM in the experiment on NCI-H460 cells, 10 nM with HeLa-MaTu-ADR cells and 11 nM in the experiment with DU145 cells. Moreover, the “Selectivity high ATP CDK9” value on CDK9/CycT1 is 19.6.

On to `CS(=N)(=O)Cc1cc2nc(c1)OCCCOc1cc(F)ccc1-c1cc(ncc1F)N2` (racemic) [Example 5, (rac)-15,19-Difluoro-8-[(S-methylsulfonimidoyl)methyl]-3,4-dihydro-2H,11H-10,6-(azeno)-12,16-(metheno)-1,5,11,13-benzodioxadiazacyclooctadecine], for which the IC50 at CDK9/CycT1 was 0.98 nM; in the experiment on NCI-H460 cells it was 6 nM; with DU145 cells it was 4 nM. In addition, the “Selectivity high ATP CDK9” value at CDK9/CycT1 is listed as 20.8.

Regarding `C[S+]([O-])Cc1cc2nc(c1)OCCOc1cc(F)ccc1-c1cc(ncc1F)N2` (racemic) [Example 10, (rac)-14,18-difluoro-7-[(methylsulfinyl)methyl]-2,3-dihydro-10H-9,5-(azeno)-11,15-(metheno)-1,4,10,12-benzodioxadiazacycloheptadecine], the IC50 on CDK9/CycT1 was determined as 27.8 nM; with NCI-H460 cells, 393 nM; in the experiment on HeLa-MaTu-ADR cells, 476 nM; in the experiment on DU145 cells it was 324 nM. Further, the “Selectivity high ATP CDK9” value on CDK9/CycT1 is listed as 125.7.

As for `CS(=N)(=O)Cc1cc2nc(c1)OCCOc1cc(F)ccc1-c1cc(ncc1F)N2` (racemic) [Example 11, (rac)-14,18-difluoro-7-[(S-methylsulfonimidoyl)methyl]-2,3-dihydro-10H-9,5-(azeno)-11,15-(metheno)-1,4,10,12-benzodioxadiazacycloheptadecine], the IC50 against CDK9/CycT1 was determined as 3 nM; with NCI-H460 cells, 186 nM; in the experiment with HeLa-MaTu-ADR cells, 185 nM; with DU145 cells, 159 nM. In addition, the “Selectivity high ATP CDK9” value at CDK9/CycT1 is listed as 702.

Consider `C[S+]([O-])Cc1cc2nc(c1)OCCCCOc1cc(F)ccc1-c1cc(ncc1F)N2` (racemic) [Example 13, (rac)-16,20-difluoro-9-[(methylsulfinyl)methyl]-2,3,4,5-tetrahydro-12H-11,7-(azeno)-13,17-(metheno)-1,6,12,14-benzodioxadiazacyclononadecine], for which the IC50 on CDK9/CycT1 amounted to 3.2 nM; with NCI-H460 cells, 33 nM; in the experiment with HeLa-MaTu-ADR cells, 31 nM; in the experiment with DU145 cells it was 30 nM. Moreover, at CDK9/CycT1, the “Selectivity high ATP CDK9” value came to 35.3.

On to `CS(=N)(=O)Cc1cc2nc(c1)OCCCCOc1cc(F)ccc1-c1cc(ncc1F)N2` (racemic) [Example 14, (rac)-16,20-difluoro-9-[(S-methylsulfonimidoyl)methyl]-2,3,4,5-tetrahydro-12H-11,7-(azeno)-13,17-(metheno)-1,6,12,14-benzodioxadiazacyclononadecine], for which the IC50 at CDK9/CycT1 was found to be 3.6 nM; in the experiment with NCI-H460 cells, 19 nM; in the experiment on HeLa-MaTu-ADR cells, 20 nM; in the experiment with DU145 cells it was 16 nM. In addition, the “Selectivity high ATP CDK9” value at CDK9/CycT1 is on record as 45.3.

As to `CS(=N)(=O)Cc1cc2cc(c1)OCCCOc1cc(F)ccc1-c1nc(ncc1F)N2` (racemic) [Example 15, (rac)-15,19-difluoro-8-[(S-methylsulfonimidoyl)methyl]-3,4-dihydro-2H,11H-12,16-(azeno)-10,6-(metheno)-1,5,11,13-benzodioxadiazacyclooctadecine], the IC50 on CDK9/CycT1 came to 1.9 nM; in the experiment on NCI-H460 cells it was 30 nM; in the experiment on HeLa-MaTu-ADR cells, 14 nM; in the experiment on DU145 cells it was 17 nM. In addition, at CDK9/CycT1, the “Selectivity high ATP CDK9” value is on record as 123.6.

With `CS(=O)(Cc1cc2cc(c1)OCCCOc1cc(F)ccc1-c1nc(ncc1F)N2)=NC(=O)C(F)(F)F` (racemic) [Example 16, (rac)-N-[{[15,19-difluoro-3,4-dihydro-2H,11H-12,16-(azeno)-10,6-(metheno)-1,5,11,13-benzodioxadiazacyclooctadecin-8-yl]methyl}(methyl)oxido-λ^6-sulfanylidene]-2,2,2-trifluoroacetamide], the IC50 stood at 3.9 nM against CDK9/CycT1, 26 nM with NCI-H460 cells, 12 nM in the experiment with HeLa-MaTu-ADR cells and 17 nM with DU145 cells. Further, the “Selectivity high ATP CDK9” value on CDK9/CycT1 was 172.

Regarding `CSCc1cc2nc(c1)OCCOc1cc(F)ccc1-c1cc(ncc1F)N2` [Example 9, 14,18-Difluoro-7-[(methylsulfanyl)methyl]-2,3-dihydro-10H-9,5-(azeno)-11,15-(metheno)-1,4,10,12-benzodioxadiazacycloheptadecine], at CDK9/CycT1, the IC50 turned out to be 65 nM and the “Selectivity high ATP CDK9” value is on record as above 307.

The values above are taken from patent US9963464B2, “Macrocyclic compounds” (Bayer Pharma Aktiengesellschaft, priority 2014, dated 2018).
